# Measured values from ChEMBL document CHEMBL1255340, “In vitro activities of the Rx-01 oxazolidinones against hospital and community pathogens” (2008).
# Values joined by “and” are separate entries in the source; they are usually repeats but may differ in a detail not shown here. Identical values can stand only once.
# Experiments:
# Type in all cases: functional
# [1] = tested on: Staphylococcus aureus; test: Antimicrobial activity against Staphylococcus aureus A8833 harboring U2500A mutation in 23S rRNA
# [2] = tested on: Haemophilus influenzae; test: Antimicrobial activity against Haemophilus influenzae A1950
# [3] = tested on: Enterococcus faecium; test: Antimicrobial activity against Enterococcus faecium A8767
# [4] = tested on: Enterococcus faecium; test: Antimicrobial activity against Enterococcus faecium A8130
# [5] = tested on: Enterococcus faecium; test: Antimicrobial activity against Enterococcus faecium A6345
# [6] = tested on: Chlamydia trachomatis; test: Antimicrobial activity against Chlamydia trachomatis isolated from human respiratory tract by broth microdilution method
# [7] = tested on: Enterococcus faecalis; test: Antimicrobial activity against Enterococcus faecalis ATCC 29212-P5 harboring G2576U mutation in 23S rRNA
# [8] = tested on: Enterococcus faecium; test: Antimicrobial activity against Enterococcus faecium A8948
# [9] = tested on: Enterococcus faecium; test: Antimicrobial activity against Enterococcus faecium A6349 harboring G2576U mutation in 23S rRNA
# [10] = tested on: Enterococcus faecium; test: Antimicrobial activity against Enterococcus faecium A6348 harboring G2576U mutation in 23S rRNA
# [11] = tested on: Legionella pneumophila; test: Antimicrobial activity against Legionella pneumophila isolated from human respiratory tract by broth microdilution method
# [12] = tested on: Staphylococcus aureus; test: Antimicrobial activity against Staphylococcus aureus A8761
# [13] = tested on: Staphylococcus aureus; test: Antimicrobial activity against Staphylococcus aureus pLXM1 harboring cfr gene
# [14] = tested on: Haemophilus influenzae; test: Antimicrobial activity against Haemophilus influenzae 54A1100
# [15] = tested on: Enterococcus faecium; test: Antimicrobial activity against Enterococcus faecium A9650
# [16] = tested on: Enterococcus faecium; test: Antimicrobial activity against Enterococcus faecium A6349
# [17] = tested on: Enterococcus faecium; test: Antimicrobial activity against Enterococcus faecium A5959
# [18] = tested on: Staphylococcus aureus; test: Antimicrobial activity against Staphylococcus aureus A8831 harboring U2500A mutation in 23S rRNA
# [19] = tested on: Staphylococcus aureus; test: Antimicrobial activity against Staphylococcus aureus A7817
# [20] = tested on: Enterococcus faecalis; test: Antimicrobial activity against Enterococcus faecalis A7789
# [21] = tested on: Enterococcus faecium; test: Antimicrobial activity against vancomycin-resistant Enterococcus faecium nosocomial isolate
# [22] = tested on: Enterococcus faecium; test: Antimicrobial activity against vancomycin-susceptible Enterococcus faecium nosocomial isolate by broth microdilution method
# [23] = tested on: Streptococcus pyogenes; test: Antimicrobial activity against Streptococcus pyogenes harboring mef(A) gene
# [24] = tested on: Staphylococcus epidermidis; test: Antimicrobial activity against Staphylococcus epidermidis A8934
# [25] = tested on: Staphylococcus aureus; test: Antimicrobial activity against Staphylococcus aureus A8727
# [26] = tested on: Enterococcus faecalis; test: Antimicrobial activity against Enterococcus faecalis A5962
# [27] = tested on: Enterococcus faecium; test: Antimicrobial activity against Enterococcus faecium A9621 by broth microdilution method
# [28] = tested on: Enterococcus faecium; test: Antimicrobial activity against Enterococcus faecium A5960
# [29] = tested on: Enterococcus faecalis; test: Antimicrobial activity against Enterococcus faecalis A6343
# [30] = tested on: Streptococcus pneumoniae; test: Antimicrobial activity against Streptococcus pneumoniae 02J1175
# [31] = tested on: Chlamydia pneumoniae; test: Antimicrobial activity against Chlamydophila pneumoniae isolated from human respiratory tract by broth microdilution method
# [32] = tested on: Staphylococcus aureus; test: Antimicrobial activity against Staphylococcus aureus A7819 harboring G2576U mutation in 23S rRNA
# [33] = tested on: Staphylococcus capitis; test: Antimicrobial activity against Staphylococcus capitis A8935
# [34] = tested on: Streptococcus pyogenes; test: Antimicrobial activity against Streptococcus pyogenes
# [35] = tested on: Staphylococcus hominis; test: Antimicrobial activity against Staphylococcus hominis A7828
# [36] = tested on: Staphylococcus aureus; test: Antimicrobial activity against Staphylococcus aureus A7820
# [37] = tested on: Streptococcus pneumoniae; test: Antimicrobial activity against Streptococcus pneumoniae PU1071099 harboring 65WR66 deletion in ribosomal protein L4 by broth microdilution method
# [38] = tested on: Staphylococcus aureus; test: Antimicrobial activity against Staphylococcus aureus pL150
# [39] = tested on: Streptococcus pneumoniae; test: Antimicrobial activity against Streptococcus pneumoniae harboring erm(B) and mef(A) gene
# [40] = tested on: Staphylococcus aureus; test: Antimicrobial activity against methicillin-resistant Staphylococcus aureus BK 11512
# [41] = tested on: Staphylococcus aureus; test: Antimicrobial activity against methicillin-resistant Staphylococcus aureus BK 11118
# [42] = tested on: Staphylococcus aureus; test: Antimicrobial activity against Staphylococcus aureus ATCC 29213
# [43] = tested on: Enterococcus faecalis; test: Antimicrobial activity against Enterococcus faecalis ATCC 29212
# [44] = tested on: Enterococcus faecalis; test: Antimicrobial activity against vancomycin-resistant Enterococcus faecalis 03B1069
# [45] = tested on: Moraxella catarrhalis; test: Antimicrobial activity against Moraxella catarrhalis
# [46] = tested on: Streptococcus pneumoniae; test: Antimicrobial activity against Streptococcus pneumoniae nosocomial isolate
# [47] = tested on: Streptococcus pneumoniae; test: Antimicrobial activity against Streptococcus pneumoniae harboring mef(A) gene
# [48] = tested on: Streptococcus pneumoniae; test: Antimicrobial activity against Streptococcus pneumoniae ribosomal mutant
# [49] = tested on: Enterococcus faecalis; test: Antimicrobial activity against Enterococcus faecalis A6350
# [50] = tested on: Streptococcus pneumoniae; test: Antimicrobial activity against Streptococcus pneumoniae harboring erm(B) gene by broth microdilution method; conditions: Streptococcus pneumoniae; read-out: MIC
# [51] = tested on: Streptococcus pneumoniae; test: Antimicrobial activity against Streptococcus pneumoniae 02J1258
# [52] = tested on: Staphylococcus aureus; test: Antimicrobial activity against methicillin resistant Staphylococcus aureus 67-0
# [53] = tested on: Staphylococcus aureus; test: Antimicrobial activity against methicillin-susceptible Staphylococcus aureus nosocomial isolate
# [54] = tested on: Enterococcus faecalis; test: Antimicrobial activity against vancomycin-resistant Enterococcus faecalis nosocomial isolate
# [55] = Chlamydia trachomatis, read-out: MIC
# [56] = Legionella pneumophila, read-out: MIC
# [57] = Enterococcus faecium, read-out: MIC
# [58] = Streptococcus pyogenes, read-out: MIC
# [59] = Streptococcus pneumoniae, read-out: MIC
compound,measurement,setting,value
CC(=O)NC[C@H]1CN(c2ccc(N3CCOCC3)c(F)c2)C(=O)O1 [LINEZOLID],MIC,[1],64 µg/mL
same,MIC,[2],16 µg/mL
same,MIC,[3],8 µg/mL
same,MIC,[4],32 µg/mL
same,MIC,[5],32 µg/mL
same,MIC,[6],16 µg/mL
same,MIC,[6]; [55],8 µg/mL
same,MIC,[7],32 µg/mL
same,MIC,[8],8 µg/mL
same,MIC,[9],16 µg/mL
same,MIC,[10],64 µg/mL
same,MIC,[11],8 µg/mL
same,MIC,[11]; [56],4 µg/mL
same,MIC,[12],16 µg/mL
same,MIC,[13],8 µg/mL
same,MIC,[14],16 µg/mL
same,MIC,[15],16 µg/mL
same,MIC,[16],16 µg/mL
same,MIC,[17],32 µg/mL
same,MIC,[18],128 µg/mL
same,MIC,[19],64 µg/mL
same,MIC,[20],64 µg/mL
same,MIC,[21],4 µg/mL
same,MIC,[21]; [57],2 µg/mL
same,MIC,[22],8 µg/mL
same,MIC,[22]; [57],4 µg/mL
same,MIC,[23],2 µg/mL and 4 µg/mL
same,MIC,[23]; [58],2 µg/mL
same,MIC,[24],32 µg/mL
same,MIC,[25],8 µg/mL
same,MIC,[26],32 µg/mL
same,MIC,[27],64 µg/mL
same,MIC,[28],64 µg/mL
same,MIC,[29],32 µg/mL
same,MIC,[30],0.25 µg/mL
same,MIC,[31],1 µg/mL
same,MIC,[32],64 µg/mL
same,MIC,[33],16 µg/mL
same,MIC,[34],2 µg/mL and 4 µg/mL
same,MIC,[34]; [58],2 µg/mL
same,MIC,[35],64 µg/mL
same,MIC,[36],64 µg/mL
CC(=O)NC[C@H]1CN(c2ccc(-c3ccc(CNCc4cnn[nH]4)cc3)c(F)c2)C(=O)O1 [RADEZOLID],MIC,[37],0.5 µg/mL
same,MIC,[38],1 µg/mL
same,MIC,[39],≤ 0.25 µg/mL
same,MIC,[40],2 µg/mL
same,MIC,[1],32 µg/mL
same,MIC,[2],1 µg/mL
same,MIC,[41],1 µg/mL
same,MIC,[3],2 µg/mL
same,MIC,[4],2 µg/mL
same,MIC,[5],4 µg/mL
same,MIC,[42],1 µg/mL
same,MIC,[43],≤ 0.25 µg/mL
same,MIC,[6],1 µg/mL
same,MIC,[6]; [55],0.5 µg/mL
same,MIC,[44],0.5 µg/mL
same,MIC,[7],1 µg/mL
same,MIC,[8],≤ 0.25 µg/mL
same,MIC,[9],0.5 µg/mL
same,MIC,[10],4 µg/mL
same,MIC,[11],2 µg/mL
same,MIC,[11]; [56],1 µg/mL
same,MIC,[45],0.5 µg/mL
same,MIC,"[45]; Moraxella catarrhalis, read-out: MIC",≤ 0.25 µg/mL
same,MIC,[12],16 µg/mL
same,MIC,[13],2 µg/mL
same,MIC,[14],0.5 µg/mL
same,MIC,[15],0.5 µg/mL
same,MIC,[16],0.5 µg/mL
same,MIC,[46],0.25 µg/mL
same,MIC,[46]; [59],0.125 µg/mL
same,MIC,[47],0.25 µg/mL
same,MIC,[47]; [59],0.125 µg/mL
same,MIC,[17],4 µg/mL
same,MIC,[18],64 µg/mL
same,MIC,[48],≤ 0.25 µg/mL
same,MIC,[19],32 µg/mL
same,MIC,[20],4 µg/mL
same,MIC,[49],2 µg/mL
same,MIC,[50],≤ 0.25 µg/mL
same,MIC,[22],0.5 µg/mL
same,MIC,[22]; [57],≤ 0.25 µg/mL
same,MIC,[24],2 µg/mL
same,MIC,[51],0.25 µg/mL
same,MIC,[25],4 µg/mL
same,MIC,[26],1 µg/mL
same,MIC,[27],4 µg/mL
same,MIC,[28],4 µg/mL
same,MIC,[29],4 µg/mL
same,MIC,[30],0.25 µg/mL
same,MIC,[31],1 µg/mL
same,MIC,[32],16 µg/mL
same,MIC,[52],1 µg/mL
same,MIC,[33],≤ 0.25 µg/mL
same,MIC,[35],8 µg/mL
same,MIC,[36],16 µg/mL
CC[C@H]1OC(=O)[C@H](C)C(=O)[C@H](C)[C@@H](O[C@@H]2O[C@H](C)C[C@H](N(C)C)[C@H]2O)[C@](C)(OC)C[C@@H](C)C(=O)[C@H](C)[C@H]2N(CCCCn3cnc(-c4cccnc4)c3)C(=O)O[C@]12C [TELITHROMYCIN],MIC,[53],>=0.06 ug ml-1 and 0.125 ug ml-1
CN[C@H](CC(C)C)C(=O)N[C@H]1C(=O)N[C@@H](CC(N)=O)C(=O)N[C@H]2C(=O)N[C@H]3C(=O)N[C@H](C(=O)N[C@H](C(=O)O)c4cc(O)cc(O)c4-c4cc3ccc4O)[C@H](O)c3ccc(c(Cl)c3)Oc3cc2cc(c3O[C@@H]2O[C@H](CO)[C@@H](O)[C@H](O)[C@H]2O[C@H]2C[C@](C)(N)[C@H](O)[C@H](C)O2)Oc2ccc(cc2Cl)[C@H]1O [VANCOMYCIN],MIC,[37],≤ 0.25 µg/mL
same,MIC,[54],>16 µg/mL
same,MIC,[43],2 µg/mL
same,MIC,[44],32 µg/mL
same,MIC,[7],2 µg/mL
same,MIC,[20],1 µg/mL
same,MIC,[49],1 µg/mL
same,MIC,[21]; [57],> 64 µg/mL
same,MIC,[51],0.125 µg/mL
same,MIC,[26],8 µg/mL
same,MIC,[30],0.25 µg/mL
same,MIC,[33],1 µg/mL
same,MIC,[35],2 µg/mL
GENTAMICIN,MIC,[54],> 128 µg/mL
same,MIC,[21],> 128 µg/mL
same,MIC,[22],> 128 µg/mL
